Experimental data: US10034895B2 (priority 2017, dated 2018)

Columns and labels:
[1] = test system: Human retinoblastoma cells (ATCC C-33A); assay: Trypan blue viability study of human retinoblastoma cells (dose response); conditions: conclusion of Experiment 3
Protocol: (§3) Cells for culture were obtained from the Cell Culture Facility at Duke University. […] All cells were cultured at 37° C. and 5% CO2 in a HERA cell incubator (Kendro Laboratory Products, L.P., Newtown, Conn.). Media for cells was Minimum Essential Media with Earl's salts and L-Glutamine (Gibco, Life Technologies) with 10% fetal bovine serum and non-essential amino acids and sodium pyruvate. Antibiotics for experiment #2 were penicillin/streptomycin and for experiments #3-4 were penicillin/streptomycin/amphotericin B. All drug testing was performed in Costar 6 Well Culture Cluster plates (Corning, Corning, N.Y.). The trypan blue concentration was 0.4%.
(§4) Human retinoblastoma cells (ATCC C-33A) were cultured in six well plates. […] The cells were incubated for 12 hours after which time they were stained with 1 ml trypan blue for two minutes. The media and trypan blue were aspirated from each well, and the cells were examined with an inverted microscope for photography.

[2] = test system: Human retinoblastoma cells; assay: as above; conditions: 12 hours
Protocol: as §3, §4

[3] = Stereocomplex reaction of L-lactic acid + D-lactic acid dimer (tetrazolium L-lactic acid test strips); conditions: room temperature, two minutes
Protocol: (§1) Cells for culture were obtained from the Cell Culture Facility at Duke University. PLLA was microwave synthesized from L-lactic acid as previously reported. Lactic acid concentration was measured by tetrazolium indicator color test strips (Accuvin, LLC, Napa, Calif.) from the reaction of L-lactic acid and […] in the presence of lactate dehydrogenase. All cells were cultured at 37° C. and 5% CO2 in a HERA cell incubator (Kendro Laboratory Products, L.P., Newtown, Conn.). Media for cells was Minimum Essential Media with Earl's salts and L-Glutamine (Gibco, Life Technologies) with 10% fetal bovine serum and non-essential amino acids and sodium pyruvate. Antibiotics for experiment #2 were penicillin/streptomycin and for experiments #3-4 were penicillin/streptomycin/amphotericin B. All drug testing was performed in Costar 6 Well Culture Cluster plates (Corning, Corning, N.Y.). The trypan blue concentration was 0.4%.
The reactions were carried out at room temperature and allowed to incubate for two minutes after which 20 microliters were applied to L-lactic acid test strips, and the results were read after two minutes.

HeLa cells (ATCC CCL-2) = assay: Trypan blue viability study of cultured HeLa cells
Protocol: as §1
(§2) HeLa cells (ATCC CCL-2) were cultured on six well plates. […] The cells were incubated for 12 hours, after which time they were stained with 1 ml trypan blue for two minutes. The media and trypan blue were aspirated from each well, and the cells were then placed under an inverted microscope for photography.

[4] = test system: Normal human fibroblast cells (ATCC CCL-171); assay: Trypan blue viability study of normal human fibroblast cells; conditions: for cytotoxicity of D-lactic acid dimer compared with L-lactic acid: cultured normal fibroblasts, FIGS. 13-16; for Cell characteristic: cells non-viable (trypan blue): normal fibroblasts, 12 hours
Protocol: as §1
as §2, with “Normal human fibroblast” for “HeLa”, “CCL-171)” for “CCL-2)”, “subcultured onto” for “cultured on”, “hours” for “hours,”

Compound | effective cytotoxic dose / concentration on human retinoblastoma cells [1] | Trypan blue staining for non-viable cells ([2]; 6.25 mg in 1 ml media) | Trypan blue staining for non-viable cells ([2]; 25 mg in 1 ml media) | Tetrazolium indicator (L-lactic acid remaining) ([3]; 0.5 mg dimer in 40 microliters of 10 mM L-lactic acid) [mg/L] | Tetrazolium indicator (L-lactic acid remaining) ([3]; 1.0 mg dimer in 40 microliters of 10 mM L-lactic acid) | Tetrazolium indicator (L-lactic acid remaining) ([3]; 5.0 mg dimer in 40 microliters of 10 mM L-lactic acid) | Tetrazolium indicator (L-lactic acid remaining) ([3]; 7.0 mg dimer in 40 microliters of 10 mM L-lactic acid) | concentration at which cytotoxic when applied to HeLa cells (HeLa cells (ATCC CCL-2); HeLa, conclusion of Experiment 2) [µg/mL] | cytotoxicity compared to PLLA (HeLa cells (ATCC CCL-2); cultured HeLa cells, FIGS. 2 & 3) | concentration at which selectively cytotoxic when locally applied to cancer cells (HeLa cells (ATCC CCL-2); summary over cancer cells (HeLa and retinoblastoma)) [µg/mL] | cytotoxicity of D-lactic acid dimer compared with L-lactic acid [4] | Cell characteristic: cells non-viable (trypan blue) ([4]; 1.50 mg in 1 ml media) [% cells non-viable] | Cell characteristic: cells non-viable (trypan blue) ([4]; 12.5 mg in 1 ml media) [% cells non-viable] | Cell characteristic: cells non-viable (trypan blue) ([4]; 25 mg in 1 ml media) [% cells non-viable]
C[C@@H](O)C(=O)O[C@H](C)C(=O)O [D-lactic acid dimer] | greater than 6.25 mg/ml | Thirty | Fifty | 80 | no color change | no color change | no color change | ≥ 5000 | more cytotoxic than a mixture of PLLA oligomers | 5000 to 6250 | less cytotoxic on a molar basis than L-lactic acid | 0 | 100 | 100
C[C@H](O)C(=O)O [L-lactic acid, reference compound] |  |  |  |  |  |  |  |  |  |  | more cytotoxic than D-lactic acid dimer |  |  | 
